These are literature values, as cited in publication PMC12808597, “Spatially diffuse cAMP signalling with oppositely biased GLP-1 receptor agonists in β-cells despite differences in receptor localisation” (Molecular Metabolism, 2025).

No end group written: not given here.

The test system of data set [1] is GLP-1R. As to conditions: ref [6],[26]. The source says: In this context, interest has emerged in GLP-1R agonist ligands (GLP-1RAs) showing distinct trafficking profiles, which could lead to altered signalling from intracellular locations [[14], [15], [16]], as has been extensively noted for other GPCRs [[17], [18], [19]].
In the next data set the test system is BRIN-BD11 clonal β-cells. Conditions: ref [5]. The source says:
(§1) In this work we relied on agonist-specific patterns of internalisation to provide selective endosomal or plasma membrane localisation of active GLP-1R. Alternative approaches include pharmacological or genetic inhibition of receptor internalisation, for example the small molecule dynamin inhibitor dyngo4A [55] or overexpression of dominant negative dynamin K44 mutants, both of which have been used to probe the importance of GLP-1R internalisation on its signalling responses.

The test system of a further data set is HEK293 cells. Conditions: ref [16].
Excerpt: as §1

The test system of the next data set is rodent systems. Conditions: no reference given.
Data set [2] deals with GLP-1R. Conditions: ref [12]. From the text:
GPCR signalling localisation is now a major area of research interest. Inherent to this phenomenon is the assumption that signalling responses are subject to tight spatial control, for example in the form of sharp cAMP concentration gradients close to the site of generation. Indeed, this has been reported when comparing GLP-1-induced cAMP responses at different plasma membrane nanodomains in HEK293 cells with overexpressed GLP-1R [12]. This contrasts somewhat with the current work in which cAMP was rapidly detected at intracellular locations distant from the activated GLP-1R in β-cell ...

On to “AMG133: GLP-1RA/GIPR antagonistic antibody”, for which the “GLP-1R-mediated delivery to early endosomes” value in the data set on GLP-1R [1] is on record as “enhanced GLP-1R-mediated delivery to early endosomes”.

As for `O=C(N/N=C/c1ccc(O)c(O)c1)c1cc2ccccc2cc1O` [dynasore], the “Effect on exendin-4-induced cAMP production” value in the data set on BRIN-BD11 clonal β-cells is reported as “reduced exendin-4-induced cAMP production”.

In the case of `O=C(N/N=C/c1cc(O)c(O)cc1O)c1cc2ccccc2cc1O` [dyngo4a], in the data set with HEK293 cells, the “Effect on GLP-1RA signalling responses” value was “broad inhibition of GLP-1RA signalling responses”.

For `Cc1cc(-n2nc3c(c2-n2ccn(-c4ccc5c(cnn5C)c4F)c2=O)[C@H](C)N(C(=O)c2cc4cc([C@H]5CCOC(C)(C)C5)ccc4n2[C@@]2(c4noc(=O)[nH]4)C[C@@H]2C)CC3)cc(C)c1F` [orforglipron], the “Activity in rodent systems” value in the data set with rodent systems was “inactive”.

Turning to “GLP-1: GLP-1, as used in Anton et al. [12] (HAEGTFTSDVSSYLEGQAAKEFIAWLVKGR; ends and bridges not checked; UniProt P01275 98-127, looked up)”, the “cAMP at GLP-1R nanodomain” value in the data set on GLP-1R [2] (GLP-1 1 pM) is “cAMP increases within 60 nm of the GLP-1R in HEK293 cells without changes to whole cell or overall plasma membrane cAMP”. In addition, the “cAMP gradient at GLP-1R nanodomain” value in the data set on GLP-1R [2] (GLP-1 1 nM and 100 nM) was “no such gradient was seen”.
